From US20260191968A1, “PROTAC DEGRADERS OF MLLT1 AND/OR MLLT3” (DARK BLUE THERAPEUTICS LTD, priority 2024, published 2026)

Tests used:
MV4-11 cells = assay: MV4-11 cellular proliferative assay, Assay Format B (CTG 2.0, 168 h); type: cell-based; conditions: Homo sapiens, 168 h (7 days), CTG 2.0, read-out: IC50 (MV4-11 cellular proliferative assay, Assay format B)
Experimental: MV4-11 cells at a confluency of ~50-80% was used for cell growth assay. 600 cells/well in a 384-well opaque cell culture plate (6007680; Perkin Elmer) were seeded in 40 μL of complete medium (IMDM+10% FBS+1X Penicillin-Streptomycin). Cells were incubated overnight at 37° C., 5% CO2. 10 mM DMSO stocks were prepared, cells were treated with 10 concentrations of test compounds starting from 1 uM or 100 nM, 3-fold dilution in 10 uL (5×concentration) of complete medium. Final DMSO concentration was 0.3%. Culture plates were centrifuged at 40×g, 30s. Cells were incubated with compounds for 168 h (7 days). After 7 days, 20 uL CTG 2.0 reagent (G9242; Promega) was added per well and luminescence reading was taken in Envision Xcite 2105 multimode plate reader. Data was analyzed in GraphPad Prism 10.0 and data was shown as % viability with respect to DMSO control and dose-response curves were generated using four parameter logistic regression. Assay quality was determined by z-factor calculation using positive and negative controls.

MLLT1 = target: T1, MLLT1 (Homo sapiens, UniProt Q03111); assay: MLLT1 degradation assay in MV4-11 cells (JESS chemiluminescent detection), three concentrations, 24 h; type: cell-based; conditions: with respect to DMSO control
T1 construct: host or cells: MV4-11
T1 sequence (Q03111 1-559): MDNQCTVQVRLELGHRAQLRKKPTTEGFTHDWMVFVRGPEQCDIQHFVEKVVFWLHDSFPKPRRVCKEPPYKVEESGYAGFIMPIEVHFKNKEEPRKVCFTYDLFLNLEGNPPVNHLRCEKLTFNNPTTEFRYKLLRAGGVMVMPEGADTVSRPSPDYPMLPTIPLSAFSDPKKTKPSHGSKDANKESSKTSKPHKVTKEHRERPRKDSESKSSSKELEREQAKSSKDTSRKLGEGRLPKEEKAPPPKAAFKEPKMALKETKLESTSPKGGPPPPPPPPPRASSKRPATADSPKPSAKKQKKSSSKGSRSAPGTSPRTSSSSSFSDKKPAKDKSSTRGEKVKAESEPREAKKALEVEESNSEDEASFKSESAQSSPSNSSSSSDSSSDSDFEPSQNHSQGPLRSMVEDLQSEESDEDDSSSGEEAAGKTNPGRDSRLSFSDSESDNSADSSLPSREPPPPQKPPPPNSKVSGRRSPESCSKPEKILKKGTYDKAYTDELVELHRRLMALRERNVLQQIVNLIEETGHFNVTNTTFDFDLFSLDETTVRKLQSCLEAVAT
How it was run: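 Read-out is % MLLT1 degradation versus DMSO, from band peak areas on a JESS chemiluminescent system. Cells (MV4-11) were exposed for 24 h at 37° C to three compound levels, 10, 100 and 1000 nM, in 0.1% DMSO.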

| IC50 (MV4-11 cells) | SMILES | MLLT1% Degradation @ 0.01 μM (MLLT1) | MLLT1% Degradation @ 0.1 μM (MLLT1) | MLLT1% Degradation @ 1 μM (MLLT1) |
| --- | --- | --- | --- | --- |
| ≤ 100 nM | CN1CCC[C@@H]1c1cc2cnc(NC(=O)c3ccc(CCCCC#Cc4cccc5c4CN([C@H]4CCC(=O)NC4=O)C5=O)cc3)cc2[nH]1 (relative stereo) [Example 104, 4-(6-(2-((rel-S)-2,6-dioxopiperidin-3-yl)-1-oxoisoindolin-4-yl)hex-5-yn-1-yl)-N-(2-((R)-1-methylpyrrolidin-2-yl)-1H-pyrrolo[3,2-c]pyridin-6-yl)benzamide] | – | – | – |
| ≤ 100 nM | CN1CCC[C@@H]1c1cc2cnc(NC(=O)c3ccc(CCCCC#Cc4cccc5c4CN([C@@H]4CCC(=O)NC4=O)C5=O)cc3)cc2[nH]1 (relative stereo) [Example 105, 4-(6-(2-((rel-R)-2,6-dioxopiperidin-3-yl)-1-oxoisoindolin-4-yl)hex-5-yn-1-yl)-N-(2-((R)-1-methylpyrrolidin-2-yl)-1H-pyrrolo[3,2-c]pyridin-6-yl)benzamide] | – | – | – |
| – | CN1CCC[C@@H]1c1cc2cnc(NC(=O)c3ccc(CCCC#Cc4cccc(C(=O)N[C@H]5CCC(=O)NC5=O)c4F)cc3)cc2[nH]1 [Example 219, N—((S)-2,6-dioxopiperidin-3-yl)-2-fluoro-3-(5-(4-((2-((R)-1-methylpyrrolidin-2-yl)-1H-pyrrolo[3,2-c]pyridin-6-yl)carbamoyl)phenyl)pent-1-yn-1-yl)benzamide] | A (Category A: A ≥ 75% degradation) | A (Category A: A ≥ 75% degradation) | B (Category B: 50% ≤ B < 75% degradation) |
| – | CN1CCC[C@@H]1c1cc2cnc(NC(=O)c3cccc(N4CCN(CC5CCN(c6ccc7c(c6)C(=O)N(C6CCC(=O)NC6=O)C7=O)CC5)CC4)c3)cc2[nH]1 (stereo partly drawn) [Example 220, 3-(4-((1-(2-(2,6-dioxopiperidin-3-yl)-1,3-dioxoisoindolin-5-yl)piperidin-4-yl)methyl)piperazin-1-yl)-N-(2-((R)-1-methylpyrrolidin-2-yl)-1H-pyrrolo[3,2-c]pyridin-6-yl)benzamide] | D (Category D: D < 25% degradation) | C (Category C: 25% ≤ C < 50% degradation) | B (Category B: 50% ≤ B < 75% degradation) |
| – | CN1CCC[C@@H]1c1cc2cnc(NC(=O)c3ccc(N4CCN(CC5CCN(c6ccc7c(c6)C(=O)N(C6CCC(=O)NC6=O)C7=O)CC5)CC4)cc3)cc2[nH]1 (stereo partly drawn) [Example 221, 4-(4-((1-(2-(2,6-dioxopiperidin-3-yl)-1,3-dioxoisoindolin-5-yl)piperidin-4-yl)methyl)piperazin-1-yl)-N-(2-((R)-1-methylpyrrolidin-2-yl)-1H-pyrrolo[3,2-c]pyridin-6-yl)benzamide] | C (Category C: 25% ≤ C < 50% degradation) | B (Category B: 50% ≤ B < 75% degradation) | B (Category B: 50% ≤ B < 75% degradation) |
| – | CN1CCC[C@@H]1c1cc2cnc(NC(=O)c3ccc(N4CCN(CC5CCN(c6ccc7c(c6)CN(C6CCC(=O)NC6=O)C7=O)CC5)CC4)cc3)cc2[nH]1 (stereo partly drawn) [Example 222, 4-(4-((1-(2-(2,6-dioxopiperidin-3-yl)-1-oxoisoindolin-5-yl)piperidin-4-yl)methyl)piperazin-1-yl)-N-(2-((R)-1-methylpyrrolidin-2-yl)-1H-pyrrolo[3,2-c]pyridin-6-yl)benzamide] | C (Category C: 25% ≤ C < 50% degradation) | B (Category B: 50% ≤ B < 75% degradation) | B (Category B: 50% ≤ B < 75% degradation) |
| – | CN1CCC[C@@H]1c1cc2cnc(NC(=O)c3ccc(CCCCC#Cc4ccc5c(c4)CN(C4CCC(=O)NC4=O)C5=O)cc3F)cc2[nH]1 (stereo partly drawn) [Example 223, 4-(6-(2-(2,6-dioxopiperidin-3-yl)-1-oxoisoindolin-5-yl)hex-5-yn-1-yl)-2-fluoro-N-(2-((R)-1-methylpyrrolidin-2-yl)-1H-pyrrolo[3,2-c]pyridin-6-yl)benzamide] | D (Category D: D < 25% degradation) | C (Category C: 25% ≤ C < 50% degradation) | D (Category D: D < 25% degradation) |
| – | CN1CCC[C@@H]1c1cc2cnc(NC(=O)c3ccc(N4CCC(CC#Cc5ccc6c(c5)CN(C5CCC(=O)NC5=O)C6=O)CC4)nc3)cc2[nH]1 (stereo partly drawn) [Example 224, 6-(4-(3-(2-(2,6-dioxopiperidin-3-yl)-1-oxoisoindolin-5-yl)prop-2-yn-1-yl)piperidin-1-yl)-N-(2-((R)-1-methylpyrrolidin-2-yl)-1H-pyrrolo[3,2-c]pyridin-6-yl)nicotinamide] | C (Category C: 25% ≤ C < 50% degradation) | C (Category C: 25% ≤ C < 50% degradation) | C (Category C: 25% ≤ C < 50% degradation) |
| – | CN1CCC[C@@H]1c1cc2cnc(NC(=O)c3ccc(CCCC#Cc4ccc5c(c4)C(=O)N(C4CCC(=O)NC4=O)C5)cc3)cc2[nH]1 (stereo partly drawn) [Example 225, 4-(5-(2-(2,6-dioxopiperidin-3-yl)-3-oxoisoindolin-5-yl)pent-4-yn-1-yl)-N-(2-((R)-1-methylpyrrolidin-2-yl)-1H-pyrrolo[3,2-c]pyridin-6-yl)benzamide] | C (Category C: 25% ≤ C < 50% degradation) | C (Category C: 25% ≤ C < 50% degradation) | C (Category C: 25% ≤ C < 50% degradation) |
| – | CN1CCC[C@@H]1c1cc2cnc(NC(=O)c3ccc(N4CC[C@@H](CC#Cc5cccc6c5CN(C5CCC(=O)NC5=O)C6=O)C4)nc3)cc2[nH]1 (stereo partly drawn) [Example 226, 6-((3R)-3-(3-(2-(2,6-dioxopiperidin-3-yl)-1-oxoisoindolin-4-yl)prop-2-yn-1-yl)pyrrolidin-1-yl)-N-(2-((R)-1-methylpyrrolidin-2-yl)-1H-pyrrolo[3,2-c]pyridin-6-yl)nicotinamide] | B (Category B: 50% ≤ B < 75% degradation) | B (Category B: 50% ≤ B < 75% degradation) | C (Category C: 25% ≤ C < 50% degradation) |
| – | CN1CCC[C@@H]1c1cc2cnc(NC(=O)c3ccc(OC4CN(CCC5CCN(c6ccc7c(c6)C(=O)N(C6CCC(=O)NC6=O)C7=O)CC5)C4)cc3)cc2[nH]1 (stereo partly drawn) [Example 227, 4-((1-(2-(1-(2-(2,6-dioxopiperidin-3-yl)-1,3-dioxoisoindolin-5-yl)piperidin-4-yl)ethyl)azetidin-3-yl)oxy)-N-(2-((R)-1-methylpyrrolidin-2-yl)-1H-pyrrolo[3,2-c]pyridin-6-yl)benzamide] | D (Category D: D < 25% degradation) | C (Category C: 25% ≤ C < 50% degradation) | C (Category C: 25% ≤ C < 50% degradation) |
| – | CN1CCC[C@@H]1c1cc2cnc(NC(=O)c3ccc(N4CCC(OCC5CCN(c6ccc7c(c6)CN(C6CCC(=O)NC6=O)C7=O)CC5)CC4)nc3)cc2[nH]1 (stereo partly drawn) [Example 228, 6-(4-((1-(2-(2,6-dioxopiperidin-3-yl)-1-oxoisoindolin-5-yl)piperidin-4-yl)methoxy)piperidin-1-yl)-N-(2-((R)-1-methylpyrrolidin-2-yl)-1H-pyrrolo[3,2-c]pyridin-6-yl)nicotinamide] | C (Category C: 25% ≤ C < 50% degradation) | D (Category D: D < 25% degradation) | D (Category D: D < 25% degradation) |
| – | CN1CCC[C@@H]1c1[nH]c2cc(NC(=O)c3ccc(OCCC4CCN(c5cccc6c5CN(C5CCC(=O)NC5=O)C6=O)CC4)c(F)c3)ncc2c1Cl (stereo partly drawn) [Example 229, N-(3-chloro-2-((R)-1-methylpyrrolidin-2-yl)-1H-pyrrolo[3,2-c]pyridin-6-yl)-4-(2-(1-(2-(2,6-dioxopiperidin-3-yl)-1-oxoisoindolin-4-yl)piperidin-4-yl)ethoxy)-3-fluorobenzamide] | A (Category A: A ≥ 75% degradation) | A (Category A: A ≥ 75% degradation) | A (Category A: A ≥ 75% degradation) |
| – | CN1CCC[C@@H]1c1[nH]c2cc(NC(=O)c3ccc(CCCC4CCN(c5cccc6c5CN([C@H]5CCC(=O)NC5=O)C6=O)CC4)cc3)ncc2c1Cl [Example 233, N-(3-chloro-2-((R)-1-methylpyrrolidin-2-yl)-1H-pyrrolo[3,2-c]pyridin-6-yl)-4-(3-(1-(2-((S)-2,6-dioxopiperidin-3-yl)-1-oxoisoindolin-4-yl)piperidin-4-yl)propyl)benzamide] | A (Category A: A ≥ 75% degradation) | A (Category A: A ≥ 75% degradation) | A (Category A: A ≥ 75% degradation) |
